Here are results for 5 molecules from patent US6281169A, “Aqueous suspensions of low solubility and low stability water additives” (BioLab Services, Inc., priority 1999, dated 2001).

For data set [1] the following is noted: cited from earlier work; for hydrolytic stability (in words): background.
The next data set relates to bacteria. Nature of the data set: Biocidal efficacy comparison, both bacteria (in words). In kind it is cell-based, E. coli; Strep. faecalis. Particulars: compared with NaOCl, predissolved BCDMH or other Examples. On the procedure:
(§1) The biocidal efficacy of dissolved BCDMH was compared to sodium hypochlorite using AOAC Official Method 965.13 (1995 Edition)--Disinfectant (Water) for Swimming Pools against the gram-negative bacteria E. coli (ATCC #11229) and the gram-positive bacteria Strep. faecalis (ATCC #6569). The desired nominal biocide dosage (0, 0.1, 0.3, 0.6 or 0.9 mg/l total halogen expressed as chlorine) was established by dilution from freshly prepared (filtered) standardized stock solutions of either BCDMH Powder or NaOCl into phosphate buffered water (approximate pH of 7.5 as described in the method). An inoculum was standardized to yield 2×10^8 organisms per ml. One ml of the standardized inoculum was mixed into 199 ml of phosphate buffered water containing the desired dosage of biocide. One-ml aliquots were removed at specific times (30, 60, 120 and 180 seconds after inoculum addition) and added, with mixing, into separate tubes containing 9 ml of thiosulfate solution to neutralize the oxidizing halogen. Five 1 ml aliquots of from each neutralization tube were then added and mixed into five separate tubes each containing 9 ml of subculture broth. After 48 hours of incubation, these were examined to determine growth or no growth in the subculture medium.
The efficacy of this preparation was tested as described in Example 1 except that no stock solution of the preparation was made. […]

For data set [2] the following is noted: background; cited from earlier work.
For data set [3] the following is noted: cited from earlier work.
The subject of data set [4] is Strep. faecalis (ATCC #6569). As to the kind of experiment: Biocidal efficacy, AOAC Official Method 965.13, gram-positive bacteria. It counts as cell-based. The protocol: as §1, with “medium. […]” for “medium.”
A further data set relates to E. coli (ATCC #11229). As to the kind of experiment: Biocidal efficacy, AOAC Official Method 965.13, gram-negative bacteria. It counts as cell-based. The protocol:
as §1, with “medium. […]” for “medium.”

Where [5] appears, read: 0.1 ppm total halogen as Cl2, 30 sec.
Setting [6] is: 0.1 ppm total halogen as Cl2, 60 sec.
Where [7] appears, read: 0.1 ppm total halogen as Cl2, 120 sec.
Where [8] appears, read: 0.1 ppm total halogen as Cl2, 180 sec.
[9] abbreviates: 0.3 ppm total halogen as Cl2, 30 sec.
[10] abbreviates: 0.3 ppm total halogen as Cl2, 60 sec.
[11] abbreviates: 0.3 ppm total halogen as Cl2, 120 sec.
The mark [12] stands for this setting: 0.3 ppm total halogen as Cl2, 180 sec.
Setting [13] is: 0.6 ppm total halogen as Cl2, 30 sec.
Setting [14] is: 0.6 ppm total halogen as Cl2, 60 sec.
The mark [15] stands for this setting: 0.6 ppm total halogen as Cl2, 120 sec.
Setting [16] is: 0.6 ppm total halogen as Cl2, 180 sec.
The mark [17] stands for this setting: 0.9 ppm total halogen as Cl2, 30 sec.
The mark [18] stands for this setting: 0.9 ppm total halogen as Cl2, 60 sec.
The mark [19] stands for this setting: 0.9 ppm total halogen as Cl2, 120 sec.
The mark [20] stands for this setting: 0.9 ppm total halogen as Cl2, 180 sec.

Read-outs that look alike come from different tables or passages of the source.

Regarding `CC1(C)C(=O)N(Cl)C(=O)N1Br` [BCDMH, bromochlorodimethylhydantoin], the “hydrolytic stability (in words)” value in data set [1] is “not hydrolytically stable”. The “biocidal efficacy (in words)” value with bacteria is “approximately the same”. For the same molecule, the “dissolving behaviour (in words)” value in data set [2] was “dissolves slowly”. The water solubility entry in data set [3] (20° C.) was “approximately 1,500 mg/liter”. Further, the “Number of Tubes Exhibiting Growth” value in data set [4] (setting [5]), in data set [4] (setting [6]), in data set [4] (setting [7]), in data set [4] (setting [8]), in data set [4] (setting [9]) and in data set [4] (setting [10]) was 5 Tubes (Out of 5) each time. In addition, the “Number of Tubes Exhibiting Growth” value is on record as 4 Tubes (Out of 5) in data set [4] (setting [11]); 1 Tubes (Out of 5) in data set [4] (setting [12]); 0 Tubes (Out of 5) in data set [4] (setting [13]); 0 Tubes (Out of 5) in data set [4] (setting [14]); 0 Tubes (Out of 5) in data set [4] (setting [15]); 0 Tubes (Out of 5) in data set [4] (setting [16]). Also, the “Number of Tubes Exhibiting Growth” value is 0 Tubes (Out of 5) in data set [4] (setting [17]); 0 Tubes (Out of 5) in data set [4] (setting [18]); 0 Tubes (Out of 5) in data set [4] (setting [19]); 0 Tubes (Out of 5) in data set [4] (setting [20]); 5 Tubes (Out of 5) in the data set on E. coli (ATCC #11229) (setting [5]); 5 Tubes (Out of 5) with E. coli (ATCC #11229) (setting [6]). In addition, the “Number of Tubes Exhibiting Growth” value in the data set with E. coli (ATCC #11229) (setting [7]), in the data set on E. coli (ATCC #11229) (setting [8]), in the data set with E. coli (ATCC #11229) (setting [9]), in the data set on E. coli (ATCC #11229) (setting [10]), with E. coli (ATCC #11229) (setting [11]) and with E. coli (ATCC #11229) (setting [12]) was 5 Tubes (Out of 5) throughout. The “Number of Tubes Exhibiting Growth” value in the data set with E. coli (ATCC #11229) (setting [13]), in the data set on E. coli (ATCC #11229) (setting [14]), in the data set with E. coli (ATCC #11229) (setting [15]), in the data set with E. coli (ATCC #11229) (setting [16]), with E. coli (ATCC #11229) (setting [17]) and in the data set on E. coli (ATCC #11229) (setting [18]) was 0 Tubes (Out of 5) in each case. Further, the “Number of Tubes Exhibiting Growth” value in the data set on E. coli (ATCC #11229) (setting [19]) and with E. coli (ATCC #11229) (setting [20]) was 0 Tubes (Out of 5) each time.

In the case of `O=[N+]([O-])C(Br)=Cc1ccco1` [BNEF, 2-(2-bromo-2-nitro)-ethenyl furan], the decomposition half-life in data set [1] (pH 4, 50° C.) was 2.33 h; in data set [1] (pH 4, 60° C.), 1.77 h; in data set [1] (pH 4, 70° C.), 0.817 h; in data set [1] (pH 5, 25° C.), 71 h; in data set [1] (pH 6, 25° C.), 37 h; in data set [1] (pH 9, 25° C.), 6 h. In addition, in data set [3] (25° C.), the solubility in water is recorded as 300 ppm.

For `O=c1[nH]c(=O)[nH]c(=O)[nH]1` [CYA, S-triazine-2,4,6-trione], the “dissolving behaviour (in words)” value in data set [2] is “fairly tough to dissolve”. The solubility in water entry in data set [3] (20° C.) is given as “approximately 2700 ppm”.

In the case of `[Na+].[O-]Cl` [NaOCl, sodium hypochlorite], the “biocidal efficacy (in words)” value in the data set on bacteria is given as “approximately the same”. The “Number of Tubes Exhibiting Growth” value in data set [4] (setting [5]), in data set [4] (setting [6]), in data set [4] (setting [7]), in data set [4] (setting [8]), in data set [4] (setting [9]) and in data set [4] (setting [10]) was 5 Tubes (Out of 5) in each case. For the same molecule, the “Number of Tubes Exhibiting Growth” value is recorded as 5 Tubes (Out of 5) in data set [4] (setting [11]); 5 Tubes (Out of 5) in data set [4] (setting [12]); 0 Tubes (Out of 5) in data set [4] (setting [13]); 0 Tubes (Out of 5) in data set [4] (setting [14]); 0 Tubes (Out of 5) in data set [4] (setting [15]); 0 Tubes (Out of 5) in data set [4] (setting [16]). The “Number of Tubes Exhibiting Growth” value with E. coli (ATCC #11229) (setting [5]), in the data set with E. coli (ATCC #11229) (setting [6]), with E. coli (ATCC #11229) (setting [7]), with E. coli (ATCC #11229) (setting [8]), in the data set with E. coli (ATCC #11229) (setting [9]) and in the data set on E. coli (ATCC #11229) (setting [10]) was 5 Tubes (Out of 5) in each case. The “Number of Tubes Exhibiting Growth” value is recorded as 3 Tubes (Out of 5) with E. coli (ATCC #11229) (setting [11]); 1 Tubes (Out of 5) with E. coli (ATCC #11229) (setting [12]); 0 Tubes (Out of 5) in the data set with E. coli (ATCC #11229) (setting [13]); 0 Tubes (Out of 5) in the data set on E. coli (ATCC #11229) (setting [14]); 0 Tubes (Out of 5) in the data set on E. coli (ATCC #11229) (setting [15]); 0 Tubes (Out of 5) with E. coli (ATCC #11229) (setting [16]).

For the molecule `CCNc1nc(Cl)nc(NC(C)(C)C)n1` [terbuthylazine, 2-(tert-butylamino)-4-chloro-6-(ethylamino)-s-triazine], the “hydrolytic stability (in words)” value in data set [1] was “good hydrolytic stability”. For the same molecule, the degradation half life is reported as 73 days in data set [1] (pH 5) and 194 days in data set [1] (pH 9). Further, in data set [3] (25° C.), the solubility in water is given as 11.5 ppm.
